How the values were obtained:
Format in all cases: biochemical
[1] = test system: picornain 2A protease; assay: Inhibitory activity against picornain 2A protease; details: at 100 μM
[2] = biological target: T1, papain (Carica papaya, UniProt P00784); assay: Papain inhibition, fluorometric assay with Cbz-Phe-Arg-NHMec; details: IC50 at substrate << Km taken as Ki; pH 6.8
T1 construct: purchased Sigma (St. Louis, Mo.)
T1 sequence (P00784 134-345): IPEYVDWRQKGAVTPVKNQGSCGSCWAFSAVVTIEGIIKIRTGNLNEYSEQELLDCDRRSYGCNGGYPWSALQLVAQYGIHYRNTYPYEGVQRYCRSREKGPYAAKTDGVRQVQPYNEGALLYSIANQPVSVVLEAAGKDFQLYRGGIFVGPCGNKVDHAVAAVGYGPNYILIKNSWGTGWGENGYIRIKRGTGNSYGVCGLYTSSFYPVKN
Text: (§1) The enzyme cathepsin B (E.C. 3.4.22.01) was obtained from Calbiochem (San Diego, Calif.); cathepsin L (E.C. 3.4.22.15) from Athens Research and Technology Inc. (Athens,Ga.); and papain (E.C. 3.4.22.02) from Sigma (St. Louis, Mo.).
(§2) Cbz-Phe-Arg-NHMec (--NHMec: 7-(4-methyl)coumarylamide) was obtained from BachemCalifornia, Inc. (Torrance, Calif.). All other reagents were obtained from Sigma.
(§3) The enzymes used in enzyme assays with methylcoumarylamides were activated as described elsewhere (Barret, et al., Methods Enzymol. 80:535-561 (1981); Bromme, et al., Biochem. J, 264: 475-481 (1989). Cathepsin L was assayed in 0.34 M sodium acetate buffer, pH 5.5, containing 0.1% (v/v) Brij 35, 2.5 mM dithiothreitol (DTT) and 5 mM Na2 -EDTA. Cathepsin B was assayed under the same conditions, except that the buffer was adjusted to pH 6. Papain was assayed in 50 mM sodium phosphate buffer, pH 6.8, containing 0.2 M sodium chloride, 2 mM DTT, 1 mM Na2 -EDTA and 0.025% Brij 35 (v/v).
(§4) Initial velocities of enzymatic reactions were measured spectrofluorometrically (λex =370 nm, λem 460 nm) with a Quanta Master QM1 (Photon Technologies International, South Brunswick, N.J.). Stock solutions of the enzymes were diluted into the buffer, equilibrated at room temperature, and preincubated without or with increasing concentrations of inhibitors. The reactions were started by addition of substrate. A total of 4 to 8 inhibitor concentrations were used to determine IC50 values. In all cases the substrate concentrations were much smaller than the Km value, and the IC50 values measured approximated the Ki directly (Cheng, et al., Biochemical Pharmacology, 22:3099-3108 (1973)).

[3] = biological target: T2, cathepsin L (Homo sapiens, UniProt P07711); assay: Cathepsin L inhibition, fluorometric assay with Cbz-Phe-Arg-NHMec; details: human enzyme; IC50 at substrate << Km taken as Ki; pH 5.5
T2 construct: purchased Athens Research and Technology Inc. (Athens,Ga.)
Text: as §1, §2, §3, §4

[4] = biological target: T3, cathepsin B (Homo sapiens, UniProt P07858); assay: Cathepsin B inhibition, fluorometric assay with Cbz-Phe-Arg-NHMec; details: human enzyme; IC50 at substrate << Km taken as Ki; pH 6
T3 construct: purchased Calbiochem (San Diego, Calif.)
Text: as §1, §2, §3, §4

T2 sequence (P07711 114-333): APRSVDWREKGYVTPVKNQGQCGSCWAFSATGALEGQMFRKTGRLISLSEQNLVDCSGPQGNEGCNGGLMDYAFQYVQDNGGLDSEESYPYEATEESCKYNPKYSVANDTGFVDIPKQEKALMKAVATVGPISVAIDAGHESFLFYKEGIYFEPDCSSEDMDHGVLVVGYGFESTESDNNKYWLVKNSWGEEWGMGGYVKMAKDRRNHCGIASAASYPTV

Compound	inhibition of picornain 2A protease [1]	Ki [2]	Ki [3]	Ki [4]
CC(C)[C@H](NC(=O)CCC(=O)OC(C)(C)C)C(=O)N1CCC[C@H]1C(=O)NC(Cc1ccccc1)C(=O)c1noc(Cc2cccc(C(F)(F)F)c2)n1 (stereo partly drawn) [CE-2060, (t-butoxysuccinyl)-L-valyl-N-[1-[3-[5-(3-trifluoromethylbenzyl)-1,2,4-oxadiazolyl]carbonyl]-2-benzylidone]-L-prolinamide]	100%	–	–	–
Cc1cccc(Cc2nnc(C(=O)C(NC(=O)[C@@H]3CCCN3C(=O)[C@@H](NC(=O)OCc3ccccc3)C(C)C)C(C)C)o2)c1 (stereo partly drawn) [CE-2072, (Benzyloxycarbonyl)-L-valyl-N-[1-(2-[5-(3-methylbenzyl)-1,3,4-oxadiazolyl]carbonyl)-2-(S)-methylpropyl]-L-prolinamide]	100%	–	–	–
Cc1cccc(Cc2nnc(C(=O)[C@@H](NC(=O)[C@H](Cc3ccccc3)NC(=O)[C@@H](CC(=O)O)CC(C)C)C(C)C)o2)c1 [CM-0019B, [[2-[5-(3-methylbenzyl)-1,3,4-oxadiazolyl]carbonyl]-2-(S)-methylpropyl]-L-phenylalanamide-(3R)-(isobutyl)succinic acid]	–	85 nM	~100 nM	3000 nM
CC(=O)N[C@@H](CC(C)C)C(=O)N[C@@H](CC(C)C)C(=O)NC(C)C(=O)c1noc(C)n1 (stereo partly drawn) [CQ-0004, Acetyl-L-leucyl-N-[1-[3-[5-methyl]-1,2,4-oxadiazolyl]carbonyl]-ethyl-L-leucyl amide]	–	25600 ± 5340 nM	61 ± 14 nM	27200 ± 1900 nM
CC(=O)N[C@@H](CC(C)C)C(=O)N[C@@H](CC(C)C)C(=O)NC(CCCN=C(N)N)C(=O)c1noc(C)n1 (stereo partly drawn) [CQ-0008, Acetyl-L-leucyl-N-[1-[3-[5-methyl-1,2,4-oxadiazolyl]carbonyl]-4-(guanidino)-butyl]-L-leucyl amide]	–	8590 ± 1860 nM	7.13 ± 0.32 nM	1240 ± 182 nM
Carboxysuccinyl-L-valyl-N-[1-[3-[5-(3-trifluoromethylbenzyl)- 1,2,4-oxadiazolyl]carbonyl]-2-benzylidone]-L-prolinamide [CE-2061]	100%	–	–	–
